Experiments:
[1] = test system: primary human hepatocytes; experiment: qRT-PCR validation of gene expression in hepatocytes from a second donor; format: cell-based
Experimental: qRT-PCR was performed on samples of primary human hepatocytes from a second donor. […] The 58 liver disease associated genes analyzed were ACADVL, ACAT2, ACSL1, ACSL5, AGPAT2, AGTR1, AHSG, ALAS1, AMACR, ANGPTL2, ARG1, CA12, CA2, CIDEC, COL1A1, CPS1, CPT1A, CPT2, CYP21A2, CYP2C19, CYP3A4, CYP7A1, ECH1, ENO3, ETFDH, FABP1, FABP6, G6PC, GHR, GLA, GYS2, HGD, HMGCR, HMGCS2, HMOX1, HOGA1, HPGD, IFT27, LDHA, LPIN2, MOGAT2, NCF2, PCSK9, POR, RMRP, SLC25A20, SLC2A2, SLC37A4, SLC51B, SLC6A20, SLC6A6, SOAT2, SULT2A1, TAT, TDO2, TMEM135, TNFSF11, and VLDLR as shown in Example 2.

[2] = test system: primary human hepatocytes; experiment: RNA-seq of primary human hepatocytes treated with 39 small molecules (pilot and validation); settings: for RNA-seq fold Δ (Log2): primary human hepatocytes; for Expected fold Δ: fold expected from RNA-seq Log2

Which results are given for `CCOC(=O)N1c2ccc(C(F)(F)F)cc2[C@@H](N(Cc2cc(C(F)(F)F)cc(C(F)(F)F)c2)C(=O)OC)C[C@H]1CC` [Torcetrapib]?
Fold Δ ([1]; ACAT2 gene): 2.87 fold; Fold Δ ([1]; CYP7A1 gene): 0.85 fold; Fold Δ ([1]; HMGCR gene): 4.02 fold; Fold Δ ([1]; PCSK9 gene): 5.76 fold; Fold Δ ([1]; TNFS11 gene): 1.01 fold; RNA-seq fold Δ (Log2) ([2]; ACAT2 gene): 1.22 Log2; Expected fold Δ ([2]; ACAT2 gene): 2.33 fold; RNA-seq fold Δ (Log2) ([2]; CYP7A1 gene): −1.42 Log2; Expected fold Δ ([2]; CYP7A1 gene): 0.37 fold; RNA-seq fold Δ (Log2) ([2]; HMGCR gene): 1.26 Log2; Expected fold Δ ([2]; HMGCR gene): 2.39 fold; RNA-seq fold Δ (Log2) ([2]; PCSK9 gene): 1.07 Log2; Expected fold Δ ([2]; PCSK9 gene): 2.10 fold; RNA-seq fold Δ (Log2) ([2]; TNFS11 gene): 1.09 Log2; Expected fold Δ ([2]; TNFS11 gene): 2.13 fold

From patent US20210254056A1, “IDENTIFICATION AND TARGETED MODULATION OF GENE SIGNALING NETWORKS” (CAMP4 THERAPEUTICS CORPORATION, priority 2017, published 2021)
